Entries after “also recorded” stand apart in the source; their conditions may differ. Like-named read-outs stand apart in the source and are kept apart here.

We go through ten compounds from PMC6983058, “Biologically Active Echinulin-Related Indolediketopiperazines from the Marine Sediment-Derived Fungus Aspergillus niveoglaucus” (Molecules, 2019).

For series [1] the following is noted: cell-free, cited from earlier work; for IC50: read-out: DPPH Scavenger Activity IC50.
Series [2] deals with Neuro-2a cells. The experiment in a line: Paraquat-induced cell model of Parkinson's disease (viability, MTT). The note with it: 10 µM compound 1 h pretreatment, paraquat 500 µM, 24 h.
Experimental: (§3) Neuroblastoma Neuro-2a line cells (1 × 10^4 cells/well) were treated with the test compounds at concentrations of 10 µM for 1 h, and then the neurotoxins at different concentrations were added to the neuroblastoma cell suspensions [40]. Rotenone (Sigma-Aldrich, USA) was used at 10 µM. Paraquat (Sigma-Aldrich, USA) was used at 500 µM. […] Cells incubated without neurotoxins and the test compounds and cells incubated with neurotoxins only were used as positive and negative controls, respectively. After 24 h of incubation, the cell viabilities were measured using the MTT method.
Series [3] relates to Neuro-2a cells. Briefly: 6-OHDA-induced cell model of Parkinson's disease (viability, MTT). The class given is cell-based, murine. The settings on record: 10 µM compound 1 h pretreatment, 6-OHDA 50 µM, 24 h.
Series [4] in a line: MTT cytotoxicity assay, Neuro-2a cells. The note with it: mouse.
Experimental: (§4) Neuro-2a cells were cultured in DMEM medium containing 10% fetal bovine serum (Biolot, St. Petersburg, Russia) and 1% penicillin/streptomycin (Invitrogen, Carlsbad, CA, USA). Cells were incubated at 37 °C in a humidified atmosphere containing 5% (v/v) CO2 [43].
(§5) The in vitro cytotoxicities of the individual substances were evaluated using an MTT (3-(4,5-dimethylthiazol-2-yl)-2,5-diphenyltetrazolium bromide) assay, which was performed according to the manufacturer’s instructions (Sigma-Aldrich, St. Louis, MO, USA). […] Docetaxel was used as a reference substance.
The subject of series [5] is Neuro-2a cells. Briefly: Rotenone-induced cell model of Parkinson's disease (viability, MTT). The note with it: 10 µM compound 1 h pretreatment, rotenone 10 µM, 24 h.
Experimental: as §3
For series [6], the system named is Neuro-2a cells. The experiment in a line: ROS level in paraquat-treated Neuro-2a cells (H2DCF-DA). It is filed as cell-based, murine. The settings on record: 10 µM compound 1 h, then paraquat 500 µM 1 h; neurotoxin alone 148.4 ± 6.9. The method, then:
Cell suspensions (1×10^4 cells/well) were incubated with solutions of the test compound (10 µM) for 1 h. Then, 6-hydroxydopamine solution (Sigma-Aldrich, 50 µM) or paraquat solution (Sigma-Aldrich, 500 µM) were added to each well. After 30 min (for 6-hydroxydopamine) or 1 h (for paraquat), 20 μL of 2,7-dichlorodihydrofluorescein diacetate (H2DCF-DA) solution (Molecular Probes, final concentration […]) was added to each well, and the microplate was incubated for an additional 10 min at 37 °C. The intensity of dichlorofluorescin fluorescence was measured at λex = 485 nm and λem = 518 nm. The results are presented as % relative to the control.

Series [7] in a line: in vitro. The settings on record: mouse.
Experimental: as §4, §5
The nature of series [8]: DPPH-radical scavenger assay (cell-free). The class given is biochemical. The note with it: MeOH, 30 min. The procedure:
The DPPH radical scavenging activities of the compounds were tested as described.
The compounds were dissolved in MeOH, and the solutions (120 µL) were dispensed into wells of a 96-well microplate. In all, 30 µL of the DPPH (Sigma-Aldrich, Steinheim, Germany) solution in MeOH (7.5 × 10^−3 M) was added to each well. The concentrations of the test compounds in the mixtures were 10 and 100 µM. The mixtures were shaken and left to stand for 30 min, and the absorbance of the resulting solutions was measured at 520 nm with a microplate reader MultiscanFC (ThermoScientific, Waltham, MA, USA). The radical scavenging activities of the compounds at 100 µM are presented as % relative to the control (MeOH alone), and the concentration scavenging 50% of the DPPH radical (EC50) was calculated for each compound.
On the technique in general: The DPPH test is a chemical assay of radical scavenging.

Series [9] is described as follows: MTT cytotoxicity assay, LNCaP cells. The class given is cell-based. The note with it: human. The procedure: (§1) 22Rv1, PC-3, and LNCaP cell lines were cultured according to the manufacturer’s instructions in 10% FBS/RPMI media (Invitrogen, Carlsbad, CA, USA). Cells were continuously kept in culture for a maximum of 3 months and were routinely inspected microscopically for stable phenotypes and regularly checked for contamination with mycoplasma. Cell line authentication was performed by DSMZ (Braunschweig, Germany) using highly polymorphic short tandem repeat loci.
(§2) Docetaxel was used as a reference substance.
A general note: Formazan colour is commonly taken as a measure of viable cells.

The nature of series [10]: MTT cytotoxicity assay, 22Rv1 cells. It is filed as cell-based. The note with it: human. The method, then: as §1, §2
Series [11] can be described thus: MTT cytotoxicity assay, PC-3 cells. The class given is cell-based. The note with it: human. The method, then:
as §1, §2

Series [12] has as its target T1, urease from Canavalia ensiformis (Canavalia ensiformis, UniProt P07374).
T1 construct: purchased Sigma
The experiment in a line: Cell-free urease inhibition assay (indophenol method). The class given is biochemical.

Series [13] deals with RAW264.7 cells. The note with it: murine macrophage RAW264.7; potency similar to that in Neuro-2a; cited from earlier work.
Series [14] deals with Staphylococcus aureus. Details: method as in Du et al. (supplement ref 5). The note with it: ref Du et al. (supplement ref 5); cited from earlier work.

T1 sequence (P07374 whole entry, looked up): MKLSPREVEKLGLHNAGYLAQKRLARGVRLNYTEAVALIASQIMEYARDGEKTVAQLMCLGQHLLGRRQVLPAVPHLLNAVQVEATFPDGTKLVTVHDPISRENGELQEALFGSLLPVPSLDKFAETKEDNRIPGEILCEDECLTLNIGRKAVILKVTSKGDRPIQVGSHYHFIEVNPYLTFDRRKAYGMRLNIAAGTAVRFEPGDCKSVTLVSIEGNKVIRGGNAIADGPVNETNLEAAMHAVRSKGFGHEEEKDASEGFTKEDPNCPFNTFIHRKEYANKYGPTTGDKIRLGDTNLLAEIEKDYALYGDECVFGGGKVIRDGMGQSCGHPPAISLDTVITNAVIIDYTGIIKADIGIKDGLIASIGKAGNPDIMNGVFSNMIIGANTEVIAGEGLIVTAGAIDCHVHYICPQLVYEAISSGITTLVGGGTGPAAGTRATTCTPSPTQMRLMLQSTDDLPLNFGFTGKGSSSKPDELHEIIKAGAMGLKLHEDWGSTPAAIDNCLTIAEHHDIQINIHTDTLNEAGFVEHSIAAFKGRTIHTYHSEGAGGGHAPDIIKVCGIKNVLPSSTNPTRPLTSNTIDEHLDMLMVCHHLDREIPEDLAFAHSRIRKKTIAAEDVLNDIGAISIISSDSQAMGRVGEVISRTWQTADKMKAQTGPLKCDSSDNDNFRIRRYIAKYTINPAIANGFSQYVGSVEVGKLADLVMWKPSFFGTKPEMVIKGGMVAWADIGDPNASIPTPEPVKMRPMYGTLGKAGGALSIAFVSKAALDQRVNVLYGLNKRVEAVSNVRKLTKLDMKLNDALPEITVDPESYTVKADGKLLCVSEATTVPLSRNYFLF

The term IC50 denotes the midpoint of a concentration-inhibition curve. Turning to `C=CC(C)(C)c1[nH]c2ccccc2c1C=C1NC(=O)C2(CC(C)C=CC2C=Cc2c(O)cc(CC=C(C)C)c(O)c2C=O)NC1=O` (centres unmarked) [Compound 2, cryptoechinuline D], in series [1], the “DPPH Scavenger Activity IC50” value was “strong” and the IC50 is 23.6 µM. In [2], the “increase in viability of PQ-treated cells” value is “did not show any cytoprotective effects”. In [3], the “increase in viability of 6-OHDA-treated cells” value is “did not show any cytoprotective effects”. In series [4], the half-inhibitory concentration (IC50) was above 100 µM. Further, the “increase in viability of rotenone-treated cells” value in series [5] is recorded as “did not show any cytoprotective effects”.

On to `C=CC(C)(C)c1[nH]c2ccccc2c1/C=C1\NC(=O)C(=O)NC1=O` [Compound 6, neoechinulin E], for which the “ROS Level, % of Control, Paraquat (PQ)” value in [6] was 94.1 ± 2.9 % of Control. For the same compound, the concentration for half-maximal inhibition (IC50) in [7] was above 100 µM; in [1], 46 µM. The “increase in viability of rotenone-treated cells” value in [5] was “significant increases”.

Regarding `C=CC(C)(C)c1[nH]c2cc(CC=C(C)C)ccc2c1/C=C1\NC(=O)[C@@]2(C[C@@H](C)C=C[C@H]2/C=C/c2c(O)cc(CC=C(C)C)c(O)c2C=O)NC1=O` [Compound 1b, (−)-Cryptoechinuline B], the “increase in viability of PQ-treated cells” value in [2] is given as “protected”. For the same compound, in series [8], the “DPPH Scavenger Activity IC50” value is on record as “weak” and the IC50 worked out at 118 ± 4.7 µM. The “increase in viability of 6-OHDA-treated cells” value in [3] is “inactive”. In series [4], this compound gave a concentration for half-maximal inhibition (IC50) above 100 µM. Moreover, the “increase in viability of rotenone-treated cells” value in series [5] is “inactive”.

`C=CC(C)(C)c1[nH]c2cc(CC=C(C)C)ccc2c1/C=C1\NC(=O)C(=O)NC1=O` [Compound 7, neoechinulin]: the “increase in viability of PQ-treated cells” value in [2] was “inactive”. The IC50 was 62.6 ± 1.1 µM in [8]; 38.9 µM in series [9]; 49.9 µM in series [10]; 63.8 µM in series [11]; above 100 µM in series [4]. Besides, the “increase in viability of rotenone-treated cells” value in series [5] was “not active”.

`CC(=O)O[C@@]12CO[C@@H]1C[C@H](O)[C@@]1(C)C(=O)[C@H](O)C3=C(C)[C@@H](OC(=O)[C@H](O)[C@@H](NC(=O)OC(C)(C)C)c4ccccc4)C[C@@](O)([C@@H](OC(=O)c4ccccc4)[C@H]21)C3(C)C` [Docetaxel, reference compound] registered an IC50 in series [9] of 0.004 µM.

For `NC(N)=S` [Thiourea, reference compound], the IC50 in series [12] (cell-free, 0.2-100.0 µM tested, pH 7.3-7.5, read-out: urease inhibition IC50) came to 23 µM.

For orientation: viability means a read-out of living cells in per cent, often relative to untreated cells. Consider `C=CC(C)(C)c1[nH]c2cc(CC=C(C)C)ccc2c1/C=C1\NC(=O)[C@]2(C[C@H](C)C=C[C@@H]2/C=C/c2c(O)cc(CC=C(C)C)c(O)c2C=O)NC1=O` [Compound 1a, (+)-Cryptoechinuline B], for which, in series [2], the “increase in viability of PQ-treated cells” value is on record as “neuroprotective activity”. In addition, in series [8], the “DPPH Scavenger Activity IC50” value is listed as “weak” and the IC50 stood at 122 ± 7.1 µM. Moreover, in series [3], the “increase in viability of 6-OHDA-treated cells” value was “neuroprotective activity”. Moreover, the viability at 10 µM in series [3] (Mus musculus, N2a, read-out: increase in viability of 6-OHDA-treated cells) is 40.7%. Moreover, the half-inhibitory concentration (IC50) in [4] was above 100 µM. In addition, in series [5], the “increase in viability of rotenone-treated cells” value is “neuroprotective activity; also recorded: significant increases”.

Turning to `C=CC(C)(C)c1[nH]c2ccccc2c1/C=c1\[nH]c(=O)c(=C)[nH]c1=O` [Compound 4, neoechinulin B], in series [6], the “ROS Level, % of Control, Paraquat (PQ)” value was 101.8 ± 7.6 % of Control. Also, the concentration for half-maximal inhibition (IC50) in [1] is 34 µM; in series [4], 50.9 µM. The “increase in viability of PQ-treated cells” value in series [2] was “inactive”. In addition, the “cytotoxicity against RAW264.7 cells” value in series [13] was “cytotoxic”. Further, the “increase in viability of rotenone-treated cells” value in [5] is “cytoprotective activity; also recorded: significant increases”.

With `C=CC(C)(C)c1[nH]c2cc(CC=C(C)C)ccc2c1/C=c1\[nH]c(=O)c(=C)[nH]c1=O` [Compound 5, neoechinulin C], in [6], the “ROS Level, % of Control, Paraquat (PQ)” value is 97.4 ± 2.8 % of Control. Besides, the IC50 is 31.1 µM in series [1] and 40.6 µM in series [4]. Moreover, the “increase in viability of PQ-treated cells” value in series [2] is recorded as “protected”. Moreover, the “increase in viability of rotenone-treated cells” value in series [5] is “not active”.

`C=CC(C)(C)c1[nH]c2c(CC=C(C)C)cc(CC=C(C)C)cc2c1C[C@@H]1NC(=O)[C@H](C)NC1=O` [Compound 3, echinulin]: in [6], the “ROS Level, % of Control, Paraquat (PQ)” value is on record as 90.3 ± 2.2 % of Control. The IC50 in series [1] was 29.9 µM; in series [9], 25.9 µM; in series [10], 63.2 µM; in series [12] it was 29.8 µM; in series [11], 41.7 µM; in series [4], above 100 µM. Moreover, in [2], the “increase in viability of PQ-treated cells” value was “inactive”. For the same compound, the “antibacterial activity against Staphylococcus aureus” value in [14] is reported as “antibacterial activity”. The “increase in viability of rotenone-treated cells” value in series [5] is “inactive”.
